The values that follow come from US20080194524A1, “Compounds For the Inhibition of Undesired Cell Proliferation and Use Thereof” (JERINI AG, priority 2003, published 2008).

pIC50: −log10 of the molar value. Where two headings read alike, the source gives them in different places. Where a SMILES comes first, the peptide text is derived from it. [ ]: non-standard residue; d: D form. The star is where a group is joined. 2Nal = N[C@@H](Cc1ccc2ccccc2c1)C(=O)O; pGlu = O=C1CC[C@@H](C(=O)O)N1; Pip = O=C(O)[C@@H]1CCCCN1; CH2PO3H2 = O=P(O)(O)C* A value given as a limit tells only on which side of the number the result lay.

This test deals with hPin1 (Protein interacting with NIMA (-kinase)) (Homo sapiens, UniProt Q13526). Briefly: protease-coupled PPIase assay, hPin1. It is filed as biochemical.
[1] abbreviates: hPin1 6 nM, substrate Ac-Ala-Ala-Ser(PO3H2)-Pro-Arg-pNA, trypsin, 35 mM HEPES pH 7.8, 6° C., read-out: Specificity of the inhibition with rotamases, Target T-1 (IC50 class).

Chain of hPin1 (Protein interacting with NIMA (-kinase)) (Q13526 whole entry): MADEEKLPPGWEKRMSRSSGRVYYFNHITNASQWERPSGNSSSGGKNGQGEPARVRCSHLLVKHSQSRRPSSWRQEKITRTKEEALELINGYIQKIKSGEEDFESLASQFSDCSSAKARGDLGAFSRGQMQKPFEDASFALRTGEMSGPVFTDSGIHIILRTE

In general, pIC50 refers to the negative decadic logarithm of the IC50, by convention in mol/L. As to `CC(=O)N[C@@H](CSCP(=O)(O)O)C(=O)N1CCCC[C@H]1C(=O)N[C@@H](Cc1ccc2ccccc2c1)C(N)=O` [Compound 30, {2-Acetylamino-3-[2-(1-carbamoyl-2-naphthalen-2-yl-ethylcarbamoyl)-piperidin-1-yl]-3-oxo-propylsulfanylmethyl}-phosphonic acid], under setting [1], the pIC50 was 5.00 to 6.00.
Same read-out and setting: the result for `NC(=O)[C@H](Cc1ccc2ccccc2c1)NC(=O)[C@@H]1CCCCN1C(=O)[C@H](CSCP(=O)(O)O)NC(=O)OCc1ccccc1` [Compound 31, {2-Benzyloxycarbonylamino-3-[2-(1-carbamoyl-2-naphthalen-2-yl-ethylcarbamoyl)-piperidin-1-yl]-3-oxo-propylsulfanylmethyl}-phosphonic acid] reads greater than 6.00.
Still for that read-out and setting: the result for `NC(=O)[C@H](Cc1ccc2ccccc2c1)NC(=O)[C@@H]1CCCCN1C(=O)[C@H](CSCP(=O)(O)O)NS(=O)(=O)Cc1ccccc1` [Compound 32, {3-[2-(1-Carbamoyl-2-naphthalen-2-yl-ethylcarbamoyl)-piperidin-1-yl]-3-oxo-2-phenylmethane-sulfonylaminopropylsulfanyl-methyl}-phosphonic acid] reads greater than 6.00.
Take `NC(=O)[C@H](Cc1ccc2ccccc2c1)NC(=O)[C@@H]1CCCCN1C(=O)[C@H](CSCP(=O)(O)O)NC(=O)C1(c2ccccc2)CCCC1` [Compound 33, {3-[2-(1-Carbamoyl-2-naphthalen-2-yl-ethylcarbamoyl)-piperidin-1-yl]-3-oxo-2-[(1-phenyl-cyclopentanecarbonyl)-amino]-propylsulfanylmethyl}-phosphonicacid]: under setting [1], the pIC50 is 5.00 to 6.00.
Still for that read-out and setting: next, `NC(=O)[C@H](Cc1ccc2ccccc2c1)NC(=O)[C@@H]1CCCCN1C(=O)[C@H](CSCP(=O)(O)O)NC(=O)Cc1ccccc1Cl` [Compound 34, {3-[2-(1-Carbamoyl-2-naphthalen-2-yl-ethylcarbamoyl)-piperidin-1-yl]-2-[2-(2-chloro-phenyl)-acetylamino]-3-oxo-propylsulfanylmethyl}-phosphonicacid]: greater than 6.00; `NC(=O)[C@H](Cc1ccc2ccccc2c1)NC(=O)[C@@H]1CCCCN1C(=O)[C@H](CSCP(=O)(O)O)NC(=O)Cc1ccc(Cl)cc1` [Compound 35, {3-[2-(1-Carbamoyl-2-naphthalen-2-yl-ethylcarbamoyl)-piperidin-1-yl]-2-[2-(4-chloro-phenyl)-acetylamino]-3-oxo-propylsulfanylmethyl}-phosphonicacid]: greater than 6.00; `COc1ccc(CC(=O)N[C@@H](CSCP(=O)(O)O)C(=O)N2CCCC[C@H]2C(=O)N[C@@H](Cc2ccc3ccccc3c2)C(N)=O)cc1` [Compound 36, {3-[2-(1-Carbamoyl-2-naphthalen-2-yl-ethylcarbamoyl)-piperidin-1-yl]-2-[2-(4-methoxy-phenyl)-acetylamino]-3-oxo-propylsulfanylmethyl}-phosphonicacid]: greater than 6.00.
Still for that read-out and setting: the result for `NC(=O)[C@H](Cc1ccc2ccccc2c1)NC(=O)[C@@H]1CCCCN1C(=O)[C@H](CSCP(=O)(O)O)NC(=O)CCC(=O)c1ccc(Cl)cc1` [Compound 37, {3-[2-(1-Carbamoyl-2-naphthalen-2-yl-ethylcarbamoyl)-piperidin-1-yl]-2-[4-(4-chloro-phenyl)-4-oxo-butyrylamino]-3-oxo-propylsulfanylmethyl}-phosphonicacid] reads greater than 6.00; that for `COc1ccc(CCCC(=O)N[C@@H](CSCP(=O)(O)O)C(=O)N2CCCC[C@H]2C(=O)N[C@@H](Cc2ccc3ccccc3c2)C(N)=O)cc1` [Compound 38, {3-[2-(1-Carbamoyl-2-naphthalen-2-yl-ethylcarbamoyl)-piperidin-1-yl]-2-[4-(4-methoxy-phenyl)-butyrylamino]-3-oxo-propylsulfanylmethyl}-phosphonicacid], greater than 6.00.
Consider `NC(=O)[C@H](Cc1ccc2ccccc2c1)NC(=O)[C@@H]1CCCCN1C(=O)[C@H](CSCP(=O)(O)O)NC(=O)[C@@H]1CCC(=O)N1` [Compound 39, {3-[2-(1-Carbamoyl-2-naphthalen-2-yl-ethylcarbamoyl)-piperidin-1-yl]-3-oxo-2-[(5-oxo-pyrrolidine-2-carbonyl)-amino]-propylsulfanyl-methyl}-phosphonic acid] ([pGlu]C(CH2PO3H2)[Pip][2Nal]-NH2), for which the pIC50 was greater than 6.00.
Consider `NC(=O)[C@H](Cc1ccc2ccccc2c1)NC(=O)[C@@H]1CCCCN1C(=O)[C@H](CSCP(=O)(O)O)NC(=O)c1cc2ccccc2o1` [Compound 40, {2-[(Benzofuran-2-carbonyl)-amino]-3-[2-(1-carbamoyl-2-naphthalen-2-yl-ethylcarbamoyl)-piperidin-1-yl]-3-oxo-propylsulfanylmethyl}-phosphonicacid], for which the pIC50 under setting [1] is 5.00 to 6.00.
The same measure, in the same setting: the result for `NC(=O)[C@H](Cc1ccc2ccccc2c1)NC(=O)[C@@H]1CCCCN1C(=O)[C@H](CSCP(=O)(O)O)NC(=O)CN1CCNCC1` [Compound 41, [3-[2-(1-Carbamoyl-2-naphthalen-2-yl-ethylcarbamoyl)-piperidin-1-yl]-3-oxo-2-(2-piperazin-1-yl-acetylamino)-propylsulfanyl-methyl]-phosphonic acid] reads 5.00 to 6.00; that for `CC(C)COC(=O)N[C@@H](CSCP(=O)(O)O)C(=O)N1CCCC[C@H]1C(=O)N[C@@H](Cc1ccc2ccccc2c1)C(N)=O` [Compound 43, {3-[2-(1-Carbamoyl-2-naphthalen-2-yl-ethylcarbamoyl)-piperidin-1-yl]-2-isobutoxycarbonylamino-3-oxo-propylsulfanylmethyl}-phosphonic acid], 5.00 to 6.00; that for `CCCCOC(=O)N[C@@H](CSCP(=O)(O)O)C(=O)N1CCCC[C@H]1C(=O)N[C@@H](Cc1ccc2ccccc2c1)C(N)=O` [Compound 44, {2-Butoxycarbonylamino-3-[2-(1-carbamoyl-2-naphthalen-2-yl-ethylcarbamoyl)-piperidin-1-yl]-3-oxo-propylsulfanylmethyl}-phosphonic acid], 5.00 to 6.00.
Still for that read-out and setting: the result for `COC(=O)N[C@@H](CSCP(=O)(O)O)C(=O)N1CCCC[C@H]1C(=O)N[C@@H](Cc1ccc2ccccc2c1)C(N)=O` [Compound 45, {3-[2-(1-Carbamoyl-2-naphthalen-2-yl-ethylcarbamoyl)-piperidin-1-yl]-2-methoxycarbonylamino-3-oxo-propylsulfanylmethyl}-phosphonic acid] reads 5.00 to 6.00.
Molecule `NC(=O)[C@H](Cc1ccc2ccccc2c1)NC(=O)[C@@H]1CCCCN1C(=O)[C@H](CSCP(=O)(O)O)NC(=O)Oc1ccccc1` [Compound 46, {3-[2-(1-Carbamoyl-2-naphthalen-2-yl-ethylcarbamoyl)-piperidin-1-yl]3-oxo-2-phenoxycarbonylamino-propylsulfanylmethyl}-phosphonicacid] gave a negative logarithm of the IC50 (pIC50) greater than 6.00.
`NC(=O)[C@H](Cc1ccc2ccccc2c1)NC(=O)[C@@H]1CCCCN1C(=O)[C@H](CSCP(=O)(O)O)NC(=O)OCCc1ccccc1` [Compound 47, {3-{2-(1-Carbamoyl-2-naphthalen-2-yl-ethylcarbamoyl)-piperidin-1-yl]-3-oxo-2-phenethyloxycarbonyl-aminopropylsulfanylmethyl}-phosphonic acid]: the negative logarithm of the IC50 (pIC50) under setting [1] was 5.00 to 6.00.
The same measure, in the same setting: the result for `NC(=O)[C@H](Cc1ccc2ccccc2c1)NC(=O)[C@@H]1CCCCN1C(=O)[C@H](CSCP(=O)(O)O)NS(=O)(=O)c1ccccc1` [Compound 48, {2-Benzenesulfonylamino-3-[2-(1-carbamoyl-2-naphthalen-2-yl-ethylcarbamoyl)-piperidin-1-yl]-3-oxo-propylsulfanylmethyl}-phosphonic acid] reads greater than 6.00.
`NC(=O)[C@H](Cc1ccc2ccccc2c1)NC(=O)[C@@H]1CCCCN1C(=O)[C@H](CSCP(=O)(O)O)NS(=O)(=O)CCc1ccccc1` [Compound 49, [3-[2-(1-Carbamoyl-2-naphthalen-2-yl-ethylcarbamoyl)-piperidin-1-yl]-3-oxo-2-(2-phenyl-ethanesulfonylamino)-propylsulfanylmethyl]-phosphonicacid]: the negative logarithm of the IC50 (pIC50) under setting [1] is greater than 6.00.
On the same count and under the same terms, the result for `NC(=O)[C@H](Cc1ccc2ccccc2c1)NC(=O)[C@@H]1CCCCN1C(=O)[C@H](CSCP(=O)(O)O)NS(=O)(=O)CCCc1ccccc1` [Compound 50, [3-[2-(1-Carbamoyl-2-naphthalen-2-yl-ethylcarbamoyl)-piperidin-1-yl]-3-oxo-2-(3-phenyl-propane-1-sulfonylamino)-propylsulfanylmethyl]-phosphonicacid] reads greater than 6.00.
In the case of `CS(=O)(=O)N[C@@H](CSCP(=O)(O)O)C(=O)N1CCCC[C@H]1C(=O)N[C@@H](Cc1ccc2ccccc2c1)C(N)=O` [Compound 51, {3-[2-(1-Carbamoyl-2-naphthalen-2-yl-ethylcarbamoyl)-piperidin-1-yl]-2-methanesulfonylamino-3-oxo-propylsulfanylmethyl}-phosphonic acid], the pIC50 under setting [1] is 5.00 to 6.00.
Same read-out and setting: the result for `Cc1cc(C)c(S(=O)(=O)N[C@@H](CSCP(=O)(O)O)C(=O)N2CCCC[C@H]2C(=O)N[C@@H](Cc2ccc3ccccc3c2)C(N)=O)c(C)c1` [Compound 52, [3-[2-(1-Carbamoyl-2-naphthalen-2-yl-ethylcarbamoyl)-piperidin-1-yl]-3-oxo-2-(2.4.6-trimethyl-benzenesulfonylamino)-propylsulfanylmethyl]-phosphonicacid] reads 5.00 to 6.00; that for `NC(=O)[C@H](Cc1ccc2ccccc2c1)NC(=O)[C@@H]1CCCCN1C(=O)[C@H](CSCP(=O)(O)O)NS(=O)(=O)c1cccs1` [Compound 53, [3-[2-(1-Carbamoyl-2-naphthalen-2-yl-ethylcarbamoyl)-piperidin-1-yl]-3-oxo-2-(thiophene-2-sulfonylamino)propylsulfanyl-methyl]-phosphonic acid], greater than 6.00.
Same read-out and setting: the result for `NC(=O)[C@H](Cc1ccc2ccccc2c1)NC(=O)[C@@H]1CCCCN1C(=O)[C@H](CSCP(=O)(O)O)NC(=O)CCN1CCCCC1` [Compound 54, [3-[2-(1-Carbamoyl-2-naphthalen-2-yl-ethylcarbamoyl)-piperidin-1-yl]-3-oxo-2-(3-piperidin-1-yl-propionylamino)-propylsulfanylmethyl]-phosphonicacid] reads 5.00 to 6.00.
